Data: US8889140B2, “Compositions and methods for tissue repair” (TransTarget, Inc., priority 2007, dated 2014)
Entries after “also recorded” stand apart in the source; their conditions may differ. Where no end group is shown, it is not given here.

What was measured:
Type in all cases: cell-based, human
HUVEC cells [1] = experiment: Cell proliferation assay (MTS) on coated wells; settings: substrate coated at 20, 50, 100 μg/ml (fibronectin 10 and 100 μg/ml), 1-4 days, vs BSA 2 mg/ml, p<0.05
Description: To determine if EMD peptides can activate cells by stimulating cellular proliferation, 96-well plates coated using the same protocol as described above for the cell attachment assay was used. Following treatment of the wells, HUVEC cells (Lonza, Basel Switzerland) were then added to the wells at a concentration of 5×10^3 to 1×10^4 cells per well and incubated under standard culture conditions for 1, 2, 3 or 4 days. Cell proliferation was then determined at the end of the incubation period using an MTS tetrazolium/formazan assay (Promega, Madison, Wis.) according to the manufacturer's instructions.

HUVEC cells [2] = experiment: Cell attachment assay (MTS) on coated wells; settings: substrate coated at 20, 50, 100 μg/ml (fibronectin 10 and 100 μg/ml), 30 minute incubation, vs BSA 2 mg/ml
Description: Immulon 1B, untreated 96-well plates (CoStar), and untreated 35 mm dishes (CoStar) were purchased from Fisher Scientific (Pittsburg, Pa.). Human umbilical vein endothelial cells (HUVECs), cell culture media and supplements were purchased from Lonza (Basel, Switzerland). EMD peptides as shown in SEQ ID Nos: 1-4, were synthesized by Commonwealth Biotechnologies Inc., (Richmond, Va.). Amino acid analysis was performed on the peptides to verify the amino acid sequence.
For the adhesion studies 96-well Immulon 1B plates were used. Various concentrations of the EMD peptides (SEQ ID Nos: 1-4) were tested for their ability to bind cells, and compared to the full-length protein, from which the EMD peptides were derived as positive controls. Bovine Serum Albumin (BSA) treated wells were used as a negative control. Full-length collagen IV, and the EMD peptides Hep I, Hep III, FCHV, and RGD were tested at concentrations of 20 μg/ml, 50 μg/ml, and 100 μg/ml. Full length fibronectin was tested at concentrations of 10 μg/ml and 100 μg/ml. Negative control wells were coated with BSA at a concentration of 2 mg/ml. Fifty μL of protein or EMD peptide solutions at the various concentrations was added separate wells and incubated at 37° C. for at least 18 hours. The protein or peptide solution was then removed and the wells were blocked for 2 hours at 37° C. with 2 mg/mL BSA solution. Following the blocking procedure, wells were washed twice with PBS. HUVEC cells (Lonza, Basel Switzerland) were then added to the wells at a concentration of 5×10^3 to 1×10^4 cells per well. Following a thirty-minute incubation, […] wells were washed and cell adhesion was determined using an MTS (3-(4,5-dimethylthiazol-2-yl)-5-(3-carboxymethoxyphenyl)-2-(4-sulfophenyl)-2H-tetrazolium, inner salt) tetrazolium/formazan assay (Promega, Madison, Wis.) according to the manufacturer's instructions.

HUVEC cells [3] = experiment: Haptotactic cell migration assay, modified Boyden chamber; settings: 6 hours; for haptotactic migration compared to untreated membranes: membrane coated at 500 ng/ml to 300 μg/ml, normalized to uncoated control
Description: In order to test the ability of EMD peptides to recruit cells haptotactic migration assays with Hep I (SEQ ID NO:1), Hep ITT (SEQ TD NO:2), FC/HV (SEQ ID NO:3), RGD (SEQ ID NO:4), FN, and Col IV were conducted using a modified Boyden chamber. Haptotactic migration was performed in triplicate and was assessed using a modified Boyden chamber (Corning, CoStar, Acton, Mass.). The assay was carried out as follows: the lower chamber was first blocked with 10% BSA for at least 30 minutes at 37° C. followed by 3 washings with PBS. The lower surface of the membrane on the upper chamber was coated with approximately 10 μL of protein or EMD peptide solution having a concentration between 500 ng/mL-300 μg/mL and allowed to incubate for 15-30 minutes at 37° C. and then allowed to air dry at room temperature under aseptic conditions. At least one assay was performed for each concentration. Basal cell media supplemented with 0.5% BSA was then added to the lower chamber and 100 μL of H U V ECs (1×10^4 to 2×10^4 cells) in the same cell media was added to the upper chamber. The chambers were then incubated at 37° C., 5.0% CO2 for 6 hours. Upon completion of the incubation period, the cells on the membrane of the upper chamber were fixed with 4% paraformaldehyde followed by removal of the cells on the upper side of the membrane with a Q-tip. Next, the membrane was carefully removed from the chamber, dipped in a 1:4000 dilution of Hoechst 33342 (Invitrogen, Carlsbad, Calif.) and placed on a glass slide. Using a fluorescent microscope (Nikon Eclipse E800) at 10× magnification, five random fields of view were photographed on each membrane for determination of the area cell density.
In order to allow for direct comparison, the area cell density of migrated cells was normalized to the area cell density of migrated cells on the uncoated (0 μg/mL) control membrane. See, FIG. 3.

Row | Substance | cell proliferation (cell activation) compared to BSA control (HUVEC cells [1]) | cell attachment compared to BSA control (HUVEC cells [2]; p<0.05) | haptotactic migration compared to untreated membranes (HUVEC cells [3]; p<0.05) | concentrations showing statistically significant migration (HUVEC cells [3]; coated membrane, vs uncoated control membrane) | haptotactic migration compared to untreated membranes (HUVEC cells [3]; p<0.05, listed as FC/HV) | cell attachment compared to BSA control (HUVEC cells [2]; p<0.05, listed as Fibronectin)
1 | GEFYFDLRLKGDKY-OH [Hep III] | increased cellular proliferation; also recorded: significantly better at promoting cell proliferation | increased cell attachment; also recorded: significantly better at promoting cell attachment | significant migration compared to control; also recorded: promoted haptotactic migration | – | – | –
2 | GRGDSPASSPISC-OH | increased cellular proliferation; also recorded: significantly better at stimulating cellular proliferation | increased cell attachment; also recorded: significantly better at promoting cell attachment | significant migration compared to control; also recorded: promoted haptotactic migration | – | – | –
3 | TAGSCLRKFSTMY-OH [Hep I] | increased cellular proliferation; also recorded: significantly better at promoting cell proliferation | not statistically different from that of the BSA treated wells; also recorded: not significantly different from that of the BSA control | promoted haptotactic migration | greater than 1 μg/ml | – | –
4 | WQPPRARI-OH [FCHV] | not different from that of cells cultured in wells coated with BSA; also recorded: not statistically different as compared to the BSA control | not statistically different from that of the BSA treated wells; also recorded: not significantly different from that of the BSA control | did not promote haptotactic migration | – | did not show statistically significant migration at any of the concentrations tested | –
5 | fibronectin: Full length fibronectin, positive control [reference compound] | increased cellular proliferation; also recorded: significantly better at stimulating cellular proliferation | significantly better at promoting cell attachment | promoted haptotactic migration | – | – | increased cell attachment
